Paper PMC6719321 (Clinical Pharmacokinetics, 2019)
Blank lines part the entries; values can stand above or below the molecule they belong to.

Legend:
[1] = cited from earlier work
[2] = Trial 2; type: in vivo, human
[3] = cited from earlier work; remark: listed apart in the source
[4] = Trial 1
[5] = Trial 1: safety and tolerability, treatment-emergent adverse events; type: in vivo, human; settings: after warfarin 25 mg, day 9, one subject, moderate severity, possibly related to warfarin
[6] = trial 2, oral semaglutide 20 mg once daily

Molecule: NCCCC[C@H](N[C@@H](CCc1ccccc1)C(=O)O)C(=O)N1CCC[C@H]1C(=O)O [Lisinopril, lisinopril]
tmax ([4]; lisinopril 20 mg single dose alone, N = 52, median (minimum, maximum)): 6.0 h

Molecule: CC(=O)CC(c1ccccc1)c1c(O)c2ccccc2oc1=O (stereo not drawn) [Warfarin, warfarin]
INRmax of the subject with a bleeding event (epistaxis) [5]: 2.53
absorption ([3]; oral): completely absorbed

Molecule: subcutaneous semaglutide: semaglutide as once-weekly subcutaneous injection
mean t½ for subcutaneous semaglutide [3]: 156 to 160 h

Molecule: CC[C@H](C)[C@H](NC(=O)[C@H](Cc1ccccc1)NC(=O)[C@H](CCC(=O)O)NC(=O)[C@H](CCCCNC(=O)COCCOCCNC(=O)COCCOCCNC(=O)CC[C@H](NC(=O)CCCCCCCCCCCCCCCCC(=O)O)C(=O)O)NC(=O)[C@H](C)NC(=O)[C@H](C)NC(=O)[C@H](CCC(N)=O)NC(=O)CNC(=O)[C@H](CCC(=O)O)NC(=O)[C@H](CC(C)C)NC(=O)[C@H](Cc1ccc(O)cc1)NC(=O)[C@H](CO)NC(=O)[C@H](CO)NC(=O)[C@@H](NC(=O)[C@H](CC(=O)O)NC(=O)[C@H](CO)NC(=O)[C@@H](NC(=O)[C@H](Cc1ccccc1)NC(=O)[C@@H](NC(=O)CNC(=O)[C@H](CCC(=O)O)NC(=O)C(C)(C)NC(=O)[C@@H](N)Cc1cnc[nH]1)[C@@H](C)O)[C@@H](C)O)C(C)C)C(=O)N[C@@H](C)C(=O)N[C@@H](Cc1c[nH]c2ccccc12)C(=O)N[C@@H](CC(C)C)C(=O)N[C@H](C(=O)N[C@@H](CCCNC(=N)N)C(=O)NCC(=O)N[C@@H](CCCNC(=N)N)C(=O)NCC(=O)O)C(C)C [semaglutide]
Mean AUC0–24h at steady state ([4]; trial 1, oral semaglutide 20 mg once daily, after last dose (day 84)): 0.76196 µM·h
mean t½ ([4]; trial 1, oral semaglutide 20 mg once daily, steady state): 162 h
AUC0–24h at steady state, range of geometric means [2, 6]: 0.622 to 0.719 µM·h
Cmax at steady state, range of geometric means [2, 6]: 31.0 to 35.8 nM

Second part, led by results:

tmax in trial 2 ([2]; metformin steady state, morning dose fasting): 0.8 to 1.0 h
Molecule: CN(C)C(=N)N=C(N)N [Metformin, metformin]
Increase in AUC on coadministration of multiple doses of dulaglutide ([1]; steady-state metformin): up to 15%
tmax generally reported [3]: 2.5 h

tmax ([2]; digoxin 500 μg single dose alone, N = 31, median (minimum, maximum)): 1.0 h
mean t½ ([2]; digoxin single dose, alone and with oral semaglutide (both conditions)): 42 to 43 h
Molecule: C[C@H]1O[C@@H](O[C@H]2[C@@H](O)C[C@H](O[C@H]3[C@@H](O)C[C@H](O[C@H]4CC[C@@]5(C)[C@H](CC[C@@H]6[C@@H]5C[C@@H](O)[C@]5(C)[C@@H](C7=CC(=O)OC7)CC[C@]65O)C4)O[C@@H]3C)O[C@@H]2C)C[C@H](O)[C@@H]1O [Digoxin, digoxin]
Reduction of Cmax on coadministration with liraglutide [1]: 27–38%
AUC on coadministration with exenatide ([1]; digoxin PK): unchanged
Decrease of Cmax on coadministration with exenatide ([1]; digoxin PK): 17%
absorption (incomplete) ([3]; oral): ~ 70%
half-life ([3]; used to set the length of the washout periods, no reference given): 30 to 50 h
